From US10875845B2, “Compounds and methods for the treatment of ocular disorders” (Azura Ophthalmics Ltd., priority 2019, dated 2020)

Experiments:
Rabbit Cornea Homogenate = Rabbit Cornea Homogenate Stability Assay (rabbit cornea esterase assay); assay type: in vitro ADME; details: 37° C.
Method: Determining Rabbit Cornea Homogenate stability of the test compounds was performed using HPLC-MS. The assay was performed at two concentrations of Rabbit Cornea Homogenate (0.15 mg/ml and 0.45 mg/ml total protein) so that any hydrolysis observed could be assigned as esterase dependent or not.
Five rabbit corneas (e.g. New Zealand Whites) of approx. 50 mg each were sliced and scraped with a scalpel and tweezers until reduced to small (1-3 mm), thin pieces. These were transferred into a tared vial and accurately weighed, then diluted with 10 volumes aqueous PBS pH7.4
Sample was cooled intermittently on ice and shear homogenized for 3 minutes, then centrifuged for 3 min at 3000 rpm. The supernatant was pipetted off into a vial, and total protein concentration determined at 280 nm. Sample was stored at −78° C.
10 mM Compound stocks were diluted to 100 μM in a 96 deep-well plate: 10 μl of 10 mM Compound stock was added to 990 μl 50 mM HEPES, pH7.5 buffer.
Compounds were further diluted to 10 μM: 100 μl of 100 μM compound was added to 900 μl 50 mM HEPES, pH7.5 buffer.
Esterase homogenate was diluted to 300 ng/μl and 900 ng/μl
A heater shaker was set to 37° C. Into a suitable 96 well plate (Run Plate), 75 μl of 300 or 900 ng/μl esterase homogenate was pipetted into each of the required wells (2 min, 5 min, 10 min, 20 min and 45 min). The plate was sealed and then warmed at 37° C. for 5 min. Another 96 well PCR plate is put on ice (Kill Plate). To this was added 100 μl of MeCN to each well, labelled 0 min, 2 min, 5 min, 10 min, 20 min and 45 min. The plate was covered to minimise evaporation. For the T=0 sample only, to the 100 μl cold MeCN stop solution was added 50 μl of 300 or 900 ng/μl esterase homogenate followed by 50 μl of 10 μM compound solution For the remaining time points, 75 μl of 10 μM compound solution was added to the Run Plate starting from T=45 min row and ending with T=2 min row. At the appropriate time point, 100 μl of the assay mixture was added to the matching kill plate well containing 100 μl of cold MeCN. Samples were analysed as soon as practicable by LCMS (Waters Xevo TQ-S or Micromass Ultima).
Parent conjugate and parent concentrations were determined against appropriate standard response curves and the half-life (T1/2) of the parent conjugate was calculated using the peak area of the parent conjugate at each time point in the linear region of the log—linear plot.

[1] = Aqueous Hydrolysis Stability Assay; assay type: physicochemical; details: 100 μM in 50 mM HEPES pH 7.5 buffer or 1:1 Acetonitrile:Water, room temperature
Method: Determination of aqueous stability of the test compounds was performed using HPLC-MS. A test compound 10 mM stock solution was prepared in DMSO. 10 μl of the DMSO stock solution was dissolved in 990 μl of 50 mM HEPES pH 7.5 buffer or 1:1 (v/v) of Acetonitrile:Water to make a 100 μM solution. Final DMSO concentration was 1%. The solution was kept at room temperature and injected without delay into the LCMS (Waters Xevo TQ-S or Micromass Ultima). Additional injections were performed at appropriate time points.
Half-life (T1/2) of the parent conjugate was calculated using the peak area of the parent conjugate at each time point in the linear region of the log—linear plot.

[2] = Cornea Homogenate Conc 0.15 mg/mL
[3] = Cornea Homogenate Conc 0.45 mg/mL

SMILES | API Formation rate (Rabbit Cornea Homogenate; [2]) | Esterase % Lifitegrast formation at 45 min (Rabbit Cornea Homogenate; [2]) | API Formation rate (Rabbit Cornea Homogenate; [3]) | Esterase % Lifitegrast formation at 45 min (Rabbit Cornea Homogenate; [3]) | Hydrolytic % Lifitegrast formation at [time] ([1]; at 142 min) | Hydrolytic % Lifitegrast formation at [time] ([1]; at 45 min)
COC(=O)[C@@H](C)OC(=O)OC(C)OC(=O)[C@H](Cc1cccc(S(C)(=O)=O)c1)NC(=O)c1c(Cl)cc2c(c1Cl)CCN(C(=O)c1ccc3ccoc3c1)C2 (stereo partly drawn) [Comp 7, 1-(((((R)-1-methoxy-1-oxopropan-2-yl)oxy)carbonyl)oxy)ethyl (2S)-2-(2-(benzofuran-6-carbonyl)-5,7-dichloro-1,2,3,4-tetrahydroisoquinoline-6-carboxamido)-3-(3-(methylsulfonyl)phenyl) propanoate] | b (API formation rate 0.5-1.0%/min) | B (percent API formation 25% to 50%) | c (API formation rate 1.0-1.5%/min) | C (percent API formation 51% to 75%) | B [142 min] (percent API formation 1.5-4%) | 
CC(OC(=O)OCC1COC(C)(C)OC1)OC(=O)[C@H](Cc1cccc(S(C)(=O)=O)c1)NC(=O)c1c(Cl)cc2c(c1Cl)CCN(C(=O)c1ccc3ccoc3c1)C2 (stereo partly drawn) [Comp 9, 1-((((2,2-dimethyl-1,3-dioxan-5-yl)methoxy)carbonyl)oxy) ethyl (2S)-2-(2-(benzofuran-6-carbonyl)-5,7-dichloro-1,2,3,4-tetrahydroisoquinoline-6-carboxamido)-3-(3-(methylsulfonyl)phenyl) propanoate] | b (API formation rate 0.5-1.0%/min) | B (percent API formation 25% to 50%) | d (API formation rate>1.5%/min) | C (percent API formation 51% to 75%) | B [142 min] (percent API formation 1.5-4%) | 
CC(OC(=O)[C@H](Cc1cccc(S(C)(=O)=O)c1)NC(=O)c1c(Cl)cc2c(c1Cl)CCN(C(=O)c1ccc3ccoc3c1)C2)OC(=O)C(C)(C)C (stereo partly drawn) [Comp 17, 1-(((S)-2-(2-(benzofuran-6-carbonyl)-5,7-dichloro-1,2,3,4-tetrahydroisoquinoline-6-carboxamido)-3-(3-(methylsulfonyl)phenyl)propanoyl)oxy)ethyl pivalate] | b (API formation rate 0.5-1.0%/min) | B (percent API formation 25% to 50%) | c (API formation rate 1.0-1.5%/min) | C (percent API formation 51% to 75%) |  | A [45 min] (percent active pharmaceutical ingredient (API) formation<1.5%)
CC(OC(=O)CCCC[C@@H]1CCSS1)OC(=O)[C@H](Cc1cccc(S(C)(=O)=O)c1)NC(=O)c1c(Cl)cc2c(c1Cl)CCN(C(=O)c1ccc3ccoc3c1)C2 (stereo partly drawn) [Comp 20, 1-(((S)-2-(2-(benzofuran-6-carbonyl)-5,7-dichloro-1,2,3,4-tetrahydroisoquinoline-6-carboxamido)-3-(3-(methylsulfonyl)phenyl)propanoyl)oxy)ethyl 5-((R)-1,2-dithiolan-3-yl)pentanoate] | a (API formation rate<0.5%/min) | A (percent active pharmaceutical ingredient (API) formation<25%) | b (API formation rate 0.5-1.0%/min) | B (percent API formation 25% to 50%) |  | A [45 min] (percent active pharmaceutical ingredient (API) formation<1.5%)
CC(OC(=O)OCC(COC(=O)C(C)(C)C)COC(=O)C(C)(C)C)OC(=O)[C@H](Cc1cccc(S(C)(=O)=O)c1)NC(=O)c1c(Cl)cc2c(c1Cl)CCN(C(=O)c1ccc3ccoc3c1)C2 (stereo partly drawn) [Comp 12, 2-((8S)-10-(2-(benzofuran-6-carbonyl)-5,7-dichloro-1,2,3,4-tetrahydroisoquinolin-6-yl)-5-methyl-8-(3-(methylsulfonyl)benzyl)-3,7,10-trioxo-2,4,6-trioxa-9-azadecyl)propane-1,3-diyl bis(2,2-dimethylpropanoate)] | a (API formation rate<0.5%/min) | A (percent active pharmaceutical ingredient (API) formation<25%) | a (API formation rate<0.5%/min) | A (percent active pharmaceutical ingredient (API) formation<25%) | B [142 min] (percent API formation 1.5-4%) | 
CC(=O)OC(C)OC(=O)[C@H](Cc1cccc(S(C)(=O)=O)c1)NC(=O)c1c(Cl)cc2c(c1Cl)CCN(C(=O)c1ccc3ccoc3c1)C2 (stereo partly drawn) [Comp 14, 1-acetoxyethyl (2S)-2-(2-(benzofuran-6-carbonyl)-5,7-dichloro-1,2,3,4-tetrahydroisoquinoline-6-carboxamido)-3-(3-(methylsulfonyl)phenyl) propanoate] | c (API formation rate 1.0-1.5%/min) | C (percent API formation 51% to 75%) | d (API formation rate>1.5%/min) | D (percent API formation>75%) | B [142 min] (percent API formation 1.5-4%) | 
CC(OC(=O)C(C)C)OC(=O)[C@H](Cc1cccc(S(C)(=O)=O)c1)NC(=O)c1c(Cl)cc2c(c1Cl)CCN(C(=O)c1ccc3ccoc3c1)C2 (stereo partly drawn) [Comp 16, 1-(isobutyryloxy)ethyl (2S)-2-(2-(benzofuran-6-carbonyl)-5,7-dichloro-1,2,3,4-tetrahydroisoquinoline-6-carboxamido)-3-(3-(methylsulfonyl)phenyl) propanoate] | d (API formation rate>1.5%/min) | D (percent API formation>75%) | d (API formation rate>1.5%/min) | D (percent API formation>75%) | C [142 min] (percent API formation>4%) | 
CC(OC(=O)OCC(CO)CO)OC(=O)[C@H](Cc1cccc(S(C)(=O)=O)c1)NC(=O)c1c(Cl)cc2c(c1Cl)CCN(C(=O)c1ccc3ccoc3c1)C2 (stereo partly drawn) [Comp 10, 1-(((3-hydroxy-2-(hydroxymethyl)propoxy)carbonyl)oxy)ethyl (2S)-2-(2-(benzofuran-6-carbonyl)-5,7-dichloro-1,2,3,4-tetrahydroisoquinoline-6-carboxamido)-3-(3-(methylsulfonyl)phenyl) propanoate] | b (API formation rate 0.5-1.0%/min) | A (percent active pharmaceutical ingredient (API) formation<25%) | b (API formation rate 0.5-1.0%/min) | B (percent API formation 25% to 50%) | C [142 min] (percent API formation>4%) | 
CC(OC(=O)OCC(COC(=O)[C@@H](C)O)COC(=O)[C@@H](C)O)OC(=O)[C@H](Cc1cccc(S(C)(=O)=O)c1)NC(=O)c1c(Cl)cc2c(c1Cl)CCN(C(=O)c1ccc3ccoc3c1)C2 (stereo partly drawn) [Comp 13, 2-((8S)-10-(2-(benzofuran-6-carbonyl)-5,7-dichloro-1,2,3,4-tetrahydroisoquinolin-6-yl)-5-methyl-8-(3-(methylsulfonyl)benzyl)-3,7,10-trioxo-2,4,6-trioxa-9-azadecyl)propane-1,3-diyl (2R,2'R)-bis(2-hydroxypropanoate)] | a (API formation rate<0.5%/min) | A (percent active pharmaceutical ingredient (API) formation<25%) | a (API formation rate<0.5%/min) | A (percent active pharmaceutical ingredient (API) formation<25%) |  | 
